The results in this text go back to US8324245B2, “Quinoline derivative and quinazoline derivative inhibiting self-phosphorylation of hepatocytus proliferator receptor, and medicinal composition containing the same” (Kyowa Hakko Kirin Co., Ltd., priority 2001, dated 2012).

The target of the experiment is T1, met (HGF receptor) in human gastric cancer cells MKN45 (Homo sapiens, UniProt P08581).
T1 construct: endogenous in cells; host or cells: MKN45 human gastric cancer cells
As to the kind of experiment: Inhibitory activity against met-autophosphorylation using ELISA method (2), MKN45 cells, HGF-independent. In kind it is cell-based. The procedure, abridged: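 Met autophosphorylation was read by sandwich ELISA: phosphotyrosine capture (PY20), anti-HGF receptor detection, peroxidase read-out at 450 nm. Lysates came from MKN45 gastric cancer cells kept in 0.1% FCS RPMI and treated 1 h at 37 °C with test compound, with no added HGF.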
In general terms: In an ELISA, binding on a coated surface is turned into a signal by an enzyme label.

T1 sequence (P08581 25-1390): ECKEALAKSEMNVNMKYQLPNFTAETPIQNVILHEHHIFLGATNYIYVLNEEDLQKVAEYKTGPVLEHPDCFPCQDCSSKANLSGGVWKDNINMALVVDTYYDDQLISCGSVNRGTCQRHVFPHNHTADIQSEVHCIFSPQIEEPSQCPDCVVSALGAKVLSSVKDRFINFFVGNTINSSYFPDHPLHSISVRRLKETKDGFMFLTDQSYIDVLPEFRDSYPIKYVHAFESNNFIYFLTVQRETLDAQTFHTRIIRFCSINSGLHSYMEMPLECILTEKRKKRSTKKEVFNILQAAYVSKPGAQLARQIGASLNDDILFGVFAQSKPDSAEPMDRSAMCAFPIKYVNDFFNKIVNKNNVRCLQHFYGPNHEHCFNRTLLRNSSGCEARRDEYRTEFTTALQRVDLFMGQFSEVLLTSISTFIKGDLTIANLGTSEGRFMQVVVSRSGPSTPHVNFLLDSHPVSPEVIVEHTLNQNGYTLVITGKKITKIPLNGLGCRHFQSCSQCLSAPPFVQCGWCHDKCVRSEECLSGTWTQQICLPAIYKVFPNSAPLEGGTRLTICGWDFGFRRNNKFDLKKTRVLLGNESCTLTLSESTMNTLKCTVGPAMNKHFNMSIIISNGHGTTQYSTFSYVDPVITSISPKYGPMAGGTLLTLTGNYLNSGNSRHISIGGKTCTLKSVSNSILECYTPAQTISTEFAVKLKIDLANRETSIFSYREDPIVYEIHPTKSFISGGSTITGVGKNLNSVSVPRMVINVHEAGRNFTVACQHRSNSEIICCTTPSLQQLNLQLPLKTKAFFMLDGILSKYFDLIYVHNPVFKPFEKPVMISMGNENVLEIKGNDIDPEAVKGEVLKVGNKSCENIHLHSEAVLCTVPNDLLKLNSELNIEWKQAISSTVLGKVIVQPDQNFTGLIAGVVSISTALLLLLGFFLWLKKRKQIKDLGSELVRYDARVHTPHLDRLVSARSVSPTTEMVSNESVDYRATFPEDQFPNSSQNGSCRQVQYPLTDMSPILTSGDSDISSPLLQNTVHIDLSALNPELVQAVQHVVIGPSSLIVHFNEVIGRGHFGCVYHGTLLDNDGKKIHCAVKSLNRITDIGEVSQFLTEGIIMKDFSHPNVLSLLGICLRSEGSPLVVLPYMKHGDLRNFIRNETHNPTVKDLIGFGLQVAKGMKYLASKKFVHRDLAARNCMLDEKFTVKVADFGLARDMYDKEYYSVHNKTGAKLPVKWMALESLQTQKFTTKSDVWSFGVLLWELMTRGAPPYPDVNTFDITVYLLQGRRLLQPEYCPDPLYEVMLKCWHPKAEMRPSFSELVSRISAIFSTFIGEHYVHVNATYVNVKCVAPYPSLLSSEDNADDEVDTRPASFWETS

Regarding `COc1cc2nccc(Oc3ccc(NC(=O)NC(=O)Cc4cc(F)ccc4F)cc3F)c2cc1OC` [Example 133, 1-[2-(2,5-difluorophenyl)acetyl]-3-[4-(6,7-dimethoxyquinolin-4-yloxy)-3-fluorophenyl]urea], the IC50 came to 261 nM. Consider `COc1cc2nccc(Oc3ccc(NC(=O)NC(=O)Cc4c(F)cccc4F)c(F)c3)c2cc1OC` [Example 134, 1-[2-(2,6-difluorophenyl)acetyl]-3-[4-(6,7-dimethoxyquinolin-4-yloxy)-2-fluorophenyl]urea], for which the IC50 was 232 nM. Then `COc1cc2nccc(Oc3ccc(NC(=O)NC(=O)Cc4c(F)cccc4F)cc3F)c2cc1OC` [Example 135, 1-[2-(2,6-difluorophenyl)acetyl]-3-[4-(6,7-dimethoxyquinolin-4-yloxy)-3-fluorophenyl]urea], with 226 nM.

`COc1cc2nccc(Oc3ccc(NC(=O)NC(=O)Cc4ccccc4C(F)(F)F)c(F)c3)c2cc1OC` [Example 136, 1-[4-(6,7-dimethoxyquinolin-4-yloxy)-2-fluorophenyl]-3-[2-(2-trifluoromethylphenyl)acetyl]urea] yielded a 50% inhibitory concentration (IC50) of 342 nM. Then `COc1cc2nccc(Oc3ccc(NC(=O)NC(=O)Cc4ccccc4C(F)(F)F)cc3F)c2cc1OC` [Example 137, 1-[4-(6,7-dimethoxyquinolin-4-yloxy)-3-fluorophenyl]-3-[2-(2-trifluoromethylphenyl)acetyl]urea], with 271 nM; and `COc1cc2nccc(Oc3ccc(NC(=O)NC(=O)Cc4cccc(F)c4F)c(F)c3)c2cc1OC` [Example 138, 1-[2-(2,3-difluorophenyl)acetyl]-3-[4-(6,7-dimethoxyquinolin-4-yloxy)-2-fluorophenyl]urea], with 284 nM; and `COc1cc2nccc(Oc3ccc(NC(=O)NC(=O)Cc4cccc(F)c4F)cc3F)c2cc1OC` [Example 139, 1-[2-(2,3-difluorophenyl)acetyl]-3-[4-(6,7-dimethoxyquinolin-4-yloxy)-3-fluorophenyl]urea], with 243 nM. Then `COc1cc2nccc(Oc3ccc(NC(=O)NC(=O)Cc4ccc(F)c(F)c4)c(F)c3)c2cc1OC` [Example 140, 1-[2-(3,4-difluorophenyl)acetyl]-3-[4-(6,7-dimethoxyquinolin-4-yloxy)-2-fluorophenyl]urea], with 229 nM; and `COc1cc2nccc(Oc3ccc(NC(=O)NC(=O)Cc4cc(F)cc(F)c4)c(F)c3)c2cc1OC` [Example 141, 1-[2-(3,5-difluorophenyl)acetyl]-3-[4-(6,7-dimethoxyquinolin-4-yloxy)-2-fluorophenyl]urea], with 336 nM. Then `COc1cc2nccc(Oc3ccc(NC(=O)NC(=O)Cc4cc(F)cc(F)c4)cc3F)c2cc1OC` [Example 142, 1-[2-(3,5-difluorophenyl)acetyl]-3-[4-(6,7-dimethoxyquinolin-4-yloxy)-3-fluorophenyl]urea], with 285 nM; and `COc1cc2nccc(Oc3ccc(NC(=S)NC(=O)C4CCCC4)c(F)c3)c2cc1OC` [Example 143, 1-cyclopentanecarbonyl-3-[4-(6,7-dimethoxy-quinolin-4-yloxy)-2-fluorophenyl]thiourea], with 3590 nM. The compound `COc1cccc(C(=O)NC(=S)Nc2ccc(Oc3ccnc4cc(OC)c(OC)cc34)c(F)c2)c1` [Example 144, 1-[4-(6,7-dimethoxyquinolin-4-yloxy)-3-fluorophenyl]-3-(3-methoxybenzoyl)thiourea] showed an IC50 of 699 nM. Then `COc1cc2nccc(Oc3ccc(NC(=S)NC(=O)c4cccc(C(F)(F)F)c4)cc3)c2cc1OC` [Example 145, 1-[4-(6,7-dimethoxyquinolin-4-yloxy)phenyl]-3-(3-trifluoromethyl-benzoyl)thiourea], with 364 nM; and `COc1cc2nccc(Oc3ccc(NC(=S)NC(=O)c4ccccc4Br)cc3F)c2cc1OC` [Example 146, 1-(2-bromobenzoyl)-3-[4-(6,7-dimethoxy-quinolin-4-yloxy)-3-fluorophenyl]thiourea], with 1210 nM. The compound `COc1cc2nccc(Oc3ccc(NC(=S)NC(=O)CCSC)cc3F)c2cc1OC` [Example 147, 1-[4-(6,7-dimethoxyquinolin-4-yloxy)-3-fluorophenyl]-3-(3-methylsulfanylpropionyl)thiourea] had a half-inhibitory concentration (IC50) of 1170 nM. `COc1cc2nccc(Oc3ccc(NC(=S)NC(=O)CCCCl)cc3F)c2cc1OC` [Example 148, 1-(4-chloro-butyryl)-3-[4-(6,7-dimethoxy-quinolin-4-yloxy)-3-fluorophenyl]thiourea]: the IC50 was 2480 nM. Then `COc1cc2nccc(Oc3ccc(NC(=S)NC(=O)Cc4ccccc4C)cc3Cl)c2cc1OC` [Example 149, 1-[3-chloro-4-(6,7-dimethoxyquinolin-4-yloxy)phenyl]-3-(2-o-tolylacetyl)thiourea], with 236 nM; and `COc1cc2nccc(Oc3ccc(NC(=S)NC(=O)Cc4ccccc4F)cc3)c2cc1OC` [Example 151, 1-[4-(6,7-dimethoxyquinolin-4-yloxy)phenyl]-3-[2-(2-fluorophenyl)acetyl]thiourea], with 256 nM. As for `COc1cc2nccc(Oc3ccc(NC(=S)NC(=O)Cc4ccccc4F)cc3Cl)c2cc1OC` [Example 152, 1-[3-chloro-4-(6,7-dimethoxyquinolin-4-yloxy)phenyl]-3-[2-(2-fluorophenyl)acetyl]thiourea], the IC50 came to 248 nM. Regarding `COc1ccccc1CC(=O)NC(=S)Nc1ccc(Oc2ccnc3cc(OC)c(OC)cc23)cc1` [Example 153, 1-[4-(6,7-dimethoxyquinolin-4-yloxy)phenyl]-3-[2-(2-methoxyphenyl)acetyl]thiourea], the concentration for half-maximal inhibition (IC50) was determined as 232 nM. Then `COc1cc2nccc(Oc3ccc(NC(=S)NC(=O)Cc4ccccc4[N+](=O)[O-])cc3)c2cc1OC` [Example 155, 1-[4-(6,7-dimethoxyquinolin-4-yloxy)phenyl]-3-[2-(2-nitrophenyl)acetyl]thiourea], with 982 nM; and `COc1cc2nccc(Oc3ccc(NC(=S)NC(=O)Cc4ccccc4[N+](=O)[O-])cc3Cl)c2cc1OC` [Example 156, 1-[3-chloro-4-(6,7-dimethoxyquinolin-4-yloxy)phenyl]-3-[2-(2-nitrophenyl)acetyl]thiourea], with 373 nM. Then `COc1cc2nccc(Oc3ccc(NC(=S)NC(=O)COc4ccccc4)cc3Cl)c2cc1OC` [Example 157, 1-[3-chloro-4-(6,7-dimethoxyquinolin-4-yloxy)phenyl]-3-(2-phenoxyacetyl)thiourea], with 482 nM; and `COc1cc2nccc(Oc3ccc(NC(=S)NC(=O)[C@H](C)c4ccccc4)cc3)c2cc1OC` [Example 158, 1-[4-(6,7-dimethoxyquinolin-4-yloxy)phenyl]-3-(2-phenylpropionyl)thiourea], with 465 nM. Then `CCOCCC(=O)NC(=S)Nc1ccc(Oc2ccnc3cc(OC)c(OC)cc23)c(Cl)c1` [Example 159, 1-[3-chloro-4-(6,7-dimethoxyquinolin-4-yloxy)phenyl]-3-(3-ethoxypropionyl)thiourea], with 585 nM.

Compound `COc1cc2nccc(Oc3ccc(NC(=S)NC(=O)c4ccc(C)s4)cc3)c2cc1OC` [Example 160, 1-[4-(6,7-dimethoxyquinolin-4-yloxy)phenyl]-3-(5-methylthiophen-2-carbonyl)thiourea] had an IC50 of 1630 nM.

`COc1cc2nccc(Oc3ccc(NC(=S)NC(=O)CCC4CCCC4)cc3)c2cc1OC` [Example 161, 1-(3-cyclopentylpropionyl)-3-[4-(6,7-dimethoxyquinolin-4-yloxy)phenyl]thiourea] gave an IC50 of 246 nM. Compared with the last compound, the IC50 is about 6.6-fold lower.

`COc1cc2nccc(Oc3ccc(NC(=S)NC(=O)Cc4ccccc4)c(C)c3)c2cc1OC` [Example 162, 1-[4-(6,7-dimethoxyquinolin-4-yloxy)-2-methylphenyl]-3-phenylacetylthiourea] returned an IC50 of 210 nM.

Take `COc1cc2nccc(Oc3cc(C)c(NC(=S)NC(=O)Cc4ccccc4)cc3C)c2cc1OC` [Example 163, 1-[4-(6,7-dimethoxyquinolin-4-yloxy)-2,5-dimethylphenyl]-3-phenylacetylthiourea]: the IC50 was 202 nM. Turning to `COc1cc2nccc(Oc3ccc(NC(=S)NC(=O)Cc4cccc(F)c4)cc3)c2cc1OC` [Example 164, 1-[4-(6,7-dimethoxyquinolin-4-yloxy)phenyl]-3-[2-(3-fluorophenyl)acetyl]thiourea], half-maximal inhibition (IC50) required 242 nM. For `CCOCCC(=O)NC(=S)Nc1ccc(Oc2ccnc3cc(OC)c(OC)cc23)c(F)c1` [Example 165, 1-[4-(6,7-dimethoxyquinolin-4-yloxy)-3-fluorophenyl]-3-(3-ethoxypropionyl)thiourea], the IC50 was found to be 495 nM. Compound `COc1cc2nccc(Oc3ccc(NC(=S)NC(=O)CC4CCCCC4)c(F)c3)c2cc1OC` [Example 166, 1-(2-cyclohexylacetyl)-3-[4-(6,7-dimethoxy-quinolin-4-yloxy)-2-fluorophenyl]thiourea] showed an IC50 of 318 nM. Then `CCCCOCC(=O)NC(=S)Nc1ccc(Oc2ccnc3cc(OC)c(OC)cc23)c(F)c1` [Example 167, 1-(2-butoxyacetyl)-3-[4-(6,7-dimethoxy-quinolin-4-yloxy)-3-fluorophenyl]thiourea], with 259 nM; and `COc1cc2nccc(Oc3ccc(NC(=S)NC(=O)Cc4ccc(C)cc4)cc3)c2cc1OC` [Example 168, 1-[4-(6,7-dimethoxyquinolin-4-yloxy)phenyl]-3-(2-p-tolylacetyl)thiourea], with 306 nM.

For the compound `COc1ccccc1CC(=O)NC(=S)Nc1ccc(Oc2ccnc3cc(OC)c(OC)cc23)cc1F` [Example 169, 1-[4-(6,7-dimethoxyquinolin-4-yloxy)-2-fluorophenyl]-3-[2-(2-methoxyphenyl)acetyl]thiourea], half-maximal inhibition (IC50) was put at 276 nM. Then `COc1cc2nccc(Oc3ccc(NC(=S)NC(=O)Cc4ccccc4C)c(F)c3)c2cc1OC` [Example 170, 1-[4-(6,7-dimethoxyquinolin-4-yloxy)-2-fluorophenyl]-3-(2-o-tolylacetyl)thiourea], with 274 nM.

What is called IC50 is the point on the concentration scale where inhibition reaches its midpoint.
